From the CheMixHub ionic liquid set
± gives the uncertainty stated by the source.

Test: xn = mol fraction of the nth substance listed

CCCC[n+]1ccccc1.[Br-] + CC[n+]1ccccc1.[Br-]
viscosity [mPa·s], 101 kPa
Conditions | x2 = 0.085 | x2 = 0.197 | x2 = 0.269 | x2 = 0.352 | x2 = 0.52 | x2 = 0.621 | x2 = 0.689 | x2 = 0.811 | x2 = 0.903
353.1 K | – | – | – | – | 93.7 ± 6.9 | – | – | – | –
358.1 K | – | – | – | – | 77.4 ± 7.2 | – | – | – | –
363.1 K | – | – | – | 86.2 ± 6.7 | 64.2 ± 4.9 | 53.8 ± 3.5 | – | – | –
368.1 K | – | – | 80.4 ± 6.3 | 70.3 ± 5.9 | 53.7 ± 4 | 45.6 ± 3.2 | – | – | –
373.1 K | – | – | 65.3 ± 5.6 | 57.8 ± 4.7 | 45.1 ± 3.2 | 38.8 ± 2.6 | – | – | –
378.1 K | – | – | 53.5 ± 4.4 | 47.8 ± 3.7 | 38.1 ± 2.7 | 33.2 ± 2.2 | 30.3 ± 1.7 | – | –
383.1 K | – | – | 44.2 ± 3.5 | 39.9 ± 3 | 32.4 ± 2.2 | 28.6 ± 1.8 | 26.3 ± 1.6 | – | –
388.1 K | 45.3 ± 3.3 | 40.8 ± 2.6 | 36.8 ± 2.8 | 33.5 ± 2.4 | 27.7 ± 1.8 | 24.7 ± 1.5 | 22.9 ± 1.3 | 19.85 ± 0.99 | –
393.1 K | 37.4 ± 2.9 | 34.2 ± 2.5 | 30.9 ± 2.2 | 28.3 ± 2 | 23.9 ± 1.5 | 21.5 ± 1.3 | 20 ± 1.1 | 17.61 ± 0.92 | –
398.1 K | 31.1 ± 2.3 | 28.9 ± 2 | 26.2 ± 1.8 | 24.2 ± 1.6 | 20.7 ± 1.3 | 18.8 ± 1.1 | 17.59 ± 0.97 | 15.64 ± 0.8 | 14.32 ± 0.66
403.1 K | 26.2 ± 1.9 | 24.7 ± 1.6 | 22.3 ± 1.5 | 20.8 ± 1.3 | 18 ± 1 | 16.46 ± 0.92 | 15.52 ± 0.83 | 13.94 ± 0.7 | 12.86 ± 0.61
408.1 K | 22.2 ± 1.5 | 21.2 ± 1.3 | 19.2 ± 1.2 | 18 ± 1.1 | 15.75 ± 0.89 | 14.52 ± 0.78 | 13.76 ± 0.72 | 12.45 ± 0.61 | 11.57 ± 0.54
413.1 K | 19.1 ± 1.2 | 18.5 ± 1.1 | 16.65 ± 0.99 | 15.64 ± 0.91 | 13.88 ± 0.75 | 12.86 ± 0.67 | 12.25 ± 0.62 | 11.17 ± 0.53 | 10.44 ± 0.48
418.1 K | 16.53 ± 0.99 | 16.2 ± 0.89 | 14.56 ± 0.82 | 13.73 ± 0.76 | 12.29 ± 0.64 | 11.46 ± 0.57 | 10.97 ± 0.53 | 10.06 ± 0.47 | 9.44 ± 0.43
423.1 K | 14.47 ± 0.81 | 14.35 ± 0.74 | 12.83 ± 0.69 | 12.15 ± 0.64 | 10.96 ± 0.54 | 10.26 ± 0.5 | 9.85 ± 0.47 | 9.08 ± 0.41 | 8.56 ± 0.38
428.1 K | 12.78 ± 0.67 | 12.83 ± 0.62 | 11.41 ± 0.57 | 10.82 ± 0.54 | 9.83 ± 0.47 | 9.23 ± 0.43 | 8.89 ± 0.4 | 8.23 ± 0.36 | 7.77 ± 0.34
433.1 K | 11.41 ± 0.55 | – | 10.23 ± 0.48 | 9.72 ± 0.45 | 8.87 ± 0.4 | 8.35 ± 0.37 | 8.06 ± 0.35 | 7.49 ± 0.32 | 7.08 ± 0.3
438.1 K | 10.3 ± 0.46 | 10.55 ± 0.44 | 9.25 ± 0.41 | 8.8 ± 0.39 | 8.05 ± 0.35 | 7.59 ± 0.33 | 7.34 ± 0.31 | 6.83 ± 0.29 | 6.46 ± 0.27
443.1 K | 9.39 ± 0.41 | – | 8.44 ± 0.26 | 8.03 ± 0.34 | 7.36 ± 0.32 | 6.93 ± 0.29 | 6.71 ± 0.29 | 6.25 ± 0.27 | 5.91 ± 0.25

O + CC[n+]1ccn(C)c1.CS(=O)(=O)[O-]
Conditions | electrical conductivity [S/m]
298.15 K, 100 kPa, x1 = 1 | 0.00023 ± 1e-05

100 kPa, frequency 0.003 MHz, x2 = 0
Conditions | electrical conductivity [S/m]
323.15 K | 0.0005 ± 0.0001
333.15 K | 0.0015 ± 0.0001

C1COCCO1 + CC[n+]1ccn(C)c1.F[B-](F)(F)F
100 kPa, x1 = 1
Conditions | viscosity [mPa·s]
323.15 K | 0.814 ± 0.082
343.15 K | 0.64 ± 0.064

CC[n+]1ccn(C)c1.N#C[N-]C#N + CC[n+]1ccn(C)c1.F[B-](F)(F)F
298.1 K, 101 kPa
Conditions | viscosity [mPa·s]
x2 = 0.0448 | 17.2 ± 2.1
x2 = 0.6254 | 27.9 ± 4.3
x2 = 0.7856 | 31.4 ± 5.1
x2 = 0.9447 | 34.7 ± 6

CCCCn1cc[n+](CCOCCOCC[n+]2ccn(CCCC)c2)c1.N#C[N-]C#N.N#C[N-]C#N + CC[n+]1ccn(C)c1.N#C[N-]C#N + O=S(=O)([N-]S(=O)(=O)C(F)(F)F)C(F)(F)F.[Li+]
100 kPa, x1 = 0.2388, x2 = 0.6693
Conditions | electrical conductivity [S/m]
298 K | 0.505 ± 0.02
303 K | 0.581 ± 0.023
313 K | 0.847 ± 0.034
323 K | 1.23 ± 0.049
333 K | 1.53 ± 0.061
343 K | 1.85 ± 0.074

CC1COC(=O)O1 (centres undefined) + CC[n+]1ccn(C)c1.N#C[S-]
101.3 kPa, x2 = 0
Conditions | viscosity [mPa·s]
293.15 K | 2.945 ± 0.066
308.15 K | 1.919 ± 0.062
333.15 K | 1.293 ± 0.061

CC[n+]1ccn(C)c1.N#C[N-]C#N + CC[n+]1ccn(C)c1.N#C[S-]
100 kPa
Conditions | electrical conductivity [S/m] | viscosity [mPa·s]
298.15 K, x2 = 0.2585 | 2.68 ± 0.11 | 16.36 ± 0.69
308.15 K, x2 = 0.2585 | 3.45 ± 0.14 | 12.4 ± 0.53
318.15 K, x2 = 0 | 4.52 ± 0.18 | 8.93 ± 0.37
318.15 K, x2 = 0.7603 | 4.01 ± 0.16 | 11.79 ± 0.54
323.15 K, x2 = 0.5112 | 4.62 ± 0.19 | 9.51 ± 0.42
328.15 K, x2 = 0.2585 | – | 7.87 ± 0.33
333.15 K, x2 = 0 | – | 6.37 ± 0.26
338.15 K, x2 = 0.2585 | – | 6.49 ± 0.28
348.15 K, x2 = 0.5112 | – | 5.87 ± 0.26
353.15 K, x2 = 0.7603 | – | 5.7 ± 0.26

CC1COC(=O)O1 (centres undefined) + CC[n+]1ccn(C)c1.O=S(=O)([N-]S(=O)(=O)C(F)(F)F)C(F)(F)F
101.3 kPa, x2 = 0
Conditions | viscosity [mPa·s]
303.15 K | 2.246 ± 0.047
318.15 K | 1.73 ± 0.037
338.15 K | 1.294 ± 0.028

CCC[N+]1(C)CCCC1.O=S(=O)([N-]S(=O)(=O)C(F)(F)F)C(F)(F)F + CC[n+]1ccn(C)c1.O=S(=O)([N-]S(=O)(=O)C(F)(F)F)C(F)(F)F
101 kPa
Conditions | electrical conductivity, 293.15 K [S/m] | electrical conductivity, 333.15 K [S/m] | electrical conductivity, 353.15 K [S/m] | viscosity, 293.15 K [mPa·s] | viscosity, 333.15 K [mPa·s] | viscosity, 353.15 K [mPa·s]
x2 = 0 | – | 1.18 ± 0.12 | 1.76 ± 0.18 | – | 18.8 ± 1.9 | 11.6 ± 1.2
x2 = 0.5 | 0.528 ± 0.053 | – | – | 53.4 ± 5.5 | – | –

CC1COC(=O)O1 (centres undefined) + CC[n+]1ccn(C)c1.O=S(=O)([O-])C(F)(F)F
101 kPa, x2 = 0
Conditions | viscosity [mPa·s]
293.15 K | 2.94 ± 0.18
343.15 K | 1.251 ± 0.076

[Br][Al]([Br])[Br] + CC[n+]1ccn(C)c1.[Br-]
Conditions | electrical conductivity [S/m]
298.15 K, 101.3 kPa, x1 = 0.35 | 0.625 ± 0.063

NC(CO)CO + CC[n+]1ccn(C)c1.[Cl-]
101 kPa, x2 = 0.667
Conditions | viscosity [mPa·s]
298.15 K | 297 ± 15
303.15 K | 214 ± 10
313.15 K | 115.9 ± 5.2
323.15 K | 64.5 ± 2.8
333.15 K | 41.4 ± 1.8

CC1COC(=O)O1 (centres undefined) + CC[n+]1ccn(C)c1C.O=S(=O)([N-]S(=O)(=O)C(F)(F)F)C(F)(F)F
101.3 kPa, x2 = 0
Conditions | viscosity [mPa·s]
308.15 K | 2.049 ± 0.043
348.15 K | 1.14 ± 0.024
